IC50 and Emax data for 6 compounds are collected here from patent publication US10398689B2, “Benzopiperidine derivative, preparation method thereof and medical use thereof” (Jiangsu Hengrui Medicine Co., Ltd., priority 2015, dated 2019).

The target in one test is T1, ER (estrogen receptor) (Homo sapiens, UniProt P03372).
T1 construct: MCF-7/ERE-luciferase monoclonal cells were selected by transfection of MCF-7; host or cells: MCF-7/ERE-luciferase (only the ERE-luciferase reporter was transfected)
T1 sequence (P03372 1-595): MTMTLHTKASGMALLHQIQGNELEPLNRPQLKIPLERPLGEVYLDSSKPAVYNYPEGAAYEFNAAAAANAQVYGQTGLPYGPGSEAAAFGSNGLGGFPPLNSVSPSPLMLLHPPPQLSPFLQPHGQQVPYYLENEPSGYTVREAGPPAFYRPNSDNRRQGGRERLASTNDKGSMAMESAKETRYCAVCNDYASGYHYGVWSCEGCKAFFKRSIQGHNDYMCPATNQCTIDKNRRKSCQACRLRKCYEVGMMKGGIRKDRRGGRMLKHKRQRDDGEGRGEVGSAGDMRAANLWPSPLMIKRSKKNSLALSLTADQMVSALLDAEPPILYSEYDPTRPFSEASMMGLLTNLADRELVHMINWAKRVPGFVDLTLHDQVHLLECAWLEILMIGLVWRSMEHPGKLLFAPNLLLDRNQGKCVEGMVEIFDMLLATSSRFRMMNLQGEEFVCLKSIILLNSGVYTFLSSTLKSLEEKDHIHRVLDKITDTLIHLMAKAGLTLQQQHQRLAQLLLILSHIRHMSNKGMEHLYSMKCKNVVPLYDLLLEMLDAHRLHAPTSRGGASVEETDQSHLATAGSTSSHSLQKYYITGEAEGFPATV
The experiment in a line: Inhibition of the binding of estrogen (E) to estrogen receptor (ER), MCF-7/ERE-luciferase reporter cells. The class given is cell-based. As to conditions: MCF-7/ERE-luciferase cells, 0.1 nM estradiol, 24 hours, chemiluminescence; read-out: IC50 value of inhibition effect on the binding of E to ER. The method, boiled down:
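MCF-7 cells stably carrying an ERE-luciferase reporter, grown in charcoal-stripped FBS medium, were treated with compound plus 0.1 nM estradiol for 24 h at 37 °C. Luciferase chemiluminescence was then read and plotted against log compound concentration to derive IC50.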
A general note: A reporter such as luciferase makes a cellular process visible.

A further test concerns the target T2, ERα (Homo sapiens, UniProt P03372).
T2 construct: host or cells: MCF-7
T2 sequence (P03372 1-595): T1 sequence (P03372 1-595)
The experiment in a line: Degradation effect on ERα in MCF-7 cells (ERα Duoset ELISA). Format: cell-based. The following applies: MCF7; compound at 3 μM, relative to positive control AZD-9496 at 3 μM set to 100%. As for the experimental part:
In order to determine the degradation effect on ER induced by the compound of present invention, the following method was used to determine the degradation effect of the compounds of the present invention on ER.
MCF-7 cell line (TChu 74, Cell Bank of Chinese Academy of Sciences typical culture preservation Committee)
ERα Duoset Kit (#DYC5715E, R&D System)
MCF-7 cells well incubated in DMEM/F-12 medium containing 10% FBS.
On the first day of the experiment, MCF-7 cells were resuspended in DMEM/F-12 medium containing 10% FBS treated by activated carbon, then inoculated into a 48-well plate with a density of 50,000 cells/well and incubated for 22-24 hours.
On the second day of the experiment, the test compound was diluted with medium and added to a 48-well plate. The ERα-capture antibody was diluted to 1 μg/ml with PBS, and added with 100 μl/well to a 96-well plate at 100 μl/well. The plate was sealed and coated overnight at room temperature.
On the third day of the experiment, the coated 96-well plate was washed twice with PBS, added with a sealing solution (1% BSA in PBS) at 110 μl/well and sealed for 1 hour at room temperature. The 48-well plate was washed once and the residual liquid was removed. Then, 60 μl of lysis buffer (6 M urea, 1 mM EDTA, 0.5% Triton X-100, 1 mM PMSF, Protease Inhibitor cocktail) was added to each well. After lysis on ice for 15 minutes, the diluent (1 mM EDTA, 0.5% TritonX-100 dissolved in PBS) was added. The cell-diluted lysate was transferred to a 96-well plate at 100 μl/well, then the plate was incubated at room temperature for 2 hours. The diluted primary antibody was added after the plate was washed 4 times with a washing liquid (PBST). After incubation for 1 hour, the 96-well plate was washed 4 times, and the second antibody was added, then the plate was incubated for 30 minutes. After the plate was washed with a washing liquid, TMB chromogenic solution was added and incubated for 15 minutes. The reaction was stopped by the addition of 1 M H2SO4, then the light absorption at a wavelength of 450 nm was read. The degradation effect of the compound AZD9496 at 3 μM was set to 100%, the Emax of other compounds=(ODnegative control−ODcompound 3 μM)/(ODnegative control−ODAZD9496 3 μM)×100%, and the negative control was a well with DMSO.

Broadly, the IC50 is the concentration that inhibits the measured activity by half. Usually Emax stands for the maximal effect, on the per cent scale that the assay sets. As to `CC(C)c1ccc(N2[C@H](c3ccc(/C=C/C(=O)O)cc3)c3ccc(-c4cnn(C)c4)cc3C[C@H]2C)cc1` [Example 42, (E)-3-(4-((1R,3R)-2-(4-Isopropylphenyl)-3-methyl-6-(1-methyl-1H-pyrazol-4-yl)-1,2,3,4-tetrahydroisoquinolin-1-yl)phenyl)acrylic acid], the IC50 at ER (estrogen receptor) turned out to be 520 pM. On ERα, this compound gave an Emax at 3 µM of 112%.
For the compound `CCn1cc(-c2ccc3c(c2)C[C@@H](C)N(c2ccc(C4CC4)cc2)[C@@H]3c2ccc(/C=C/C(=O)O)cc2)cn1` [Example 14, (E)-3-(4-((1R,3R)-2-(4-Cyclopropylphenyl)-6-(1-ethyl-1H-pyrazol-4-yl)-3-methyl-1,2,3,4-tetrahydroisoquinolin-1-yl)phenyl)acrylic acid], the IC50 at ER (estrogen receptor) came out at 250 pM. For the same compound, the Emax at 3 µM at ERα was 147%.
The corresponding values for `CCn1cc(-c2ccc3c(c2)C[C@@H](C)N(c2ccc(C(C)C)cc2)[C@@H]3c2ccc(/C=C/C(=O)O)cc2)cn1` [Example 8, (E)-3-(4-((1R,3R)-6-(1-Ethyl-1H-pyrazol-4-yl)-2-(4-isopropylphenyl)-3-methyl-1,2,3,4-tetrahydroisoquinolin-1-yl)phenyl)acrylic acid] are 390 pM and 129%.
Taken in the same sequence, the figures for `CCc1ccc(N2C(C)Cc3cc(-c4cnn(C)c4)ccc3C2c2ccc(/C=C/C(=O)O)cc2)cc1` [Example 1, (E)-3-(4-((1R,3R/1S,3S)-2-(4-Ethylphenyl)-3-methyl-6-(1-methyl-1H-pyrazol-4-yl)-1,2,3,4-tetrahydroisoquinolin-1-yl)phenyl)acrylic acid] were 2110 pM and 115%.
Taken in the same sequence, the figures for `C[C@@H]1Cc2cc(-c3cnn(C)c3)ccc2[C@@H](c2ccc(/C=C/C(=O)O)cc2)N1c1ccc(C2CC2)cc1` [Example 11, (E)-3-(4-((1R,3R)-2-(4-Cyclopropylphenyl)-3-methyl-6-(1-methyl-1H-pyrazol-4-yl)-1,2,3,4-tetrahydroisoquinolin-1-yl)phenyl)acrylic acid] were 320 pM and 134%.
Regarding `CCn1cc(-c2ccc3c(c2)CC(C)N(c2ccc(C(C)C)cc2)C3c2ccc(/C=C/C(=O)O)cc2)cn1` [Example 7, (E)-3-(4-((1R,3R/1S,3S)-6-(1-Ethyl-1H-pyrazol-4-yl)-2-(4-isopropylphenyl)-3-methyl-1,2,3,4-tetrahydroisoquinolin-1-yl)phenyl)acrylic acid], the IC50 on ER (estrogen receptor) stood at 1790 pM. For the same compound, the Emax at 3 µM on ERα worked out at 118%.
